Each block holds one compound with its values, some of them ahead of it. Where a SMILES comes first, the peptide text is derived from it.
Legend:
[1] = biological target: T1, Type-1 angiotensin II receptor A (Rattus norvegicus, UniProt P25095); experiment: Inhibition of rat AT1 receptor
T1 sequence (P25095 whole entry): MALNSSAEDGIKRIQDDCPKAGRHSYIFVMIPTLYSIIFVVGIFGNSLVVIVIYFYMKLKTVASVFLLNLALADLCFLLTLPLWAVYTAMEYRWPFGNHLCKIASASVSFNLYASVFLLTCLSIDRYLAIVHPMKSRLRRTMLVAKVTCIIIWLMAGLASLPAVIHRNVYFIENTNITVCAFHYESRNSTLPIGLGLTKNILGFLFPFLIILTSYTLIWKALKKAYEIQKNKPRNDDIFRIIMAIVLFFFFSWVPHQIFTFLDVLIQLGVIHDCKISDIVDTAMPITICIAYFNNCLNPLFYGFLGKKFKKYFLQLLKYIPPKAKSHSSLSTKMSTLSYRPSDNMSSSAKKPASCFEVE

[2] = biological target: T2, Type-2 angiotensin II receptor (Rattus norvegicus, UniProt P35351); experiment: Inhibition of rat AT2 receptor
T2 sequence (P35351 whole entry): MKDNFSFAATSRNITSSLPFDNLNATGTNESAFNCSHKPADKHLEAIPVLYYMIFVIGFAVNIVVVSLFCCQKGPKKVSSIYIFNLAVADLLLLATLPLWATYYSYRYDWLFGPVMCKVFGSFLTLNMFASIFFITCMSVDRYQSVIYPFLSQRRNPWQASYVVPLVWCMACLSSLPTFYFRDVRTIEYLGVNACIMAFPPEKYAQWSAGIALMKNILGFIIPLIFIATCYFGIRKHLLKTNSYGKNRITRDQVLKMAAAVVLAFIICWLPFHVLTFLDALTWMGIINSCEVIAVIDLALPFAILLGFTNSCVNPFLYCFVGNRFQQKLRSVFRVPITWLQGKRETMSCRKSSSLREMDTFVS

[3] = biological target: T1, Type-1 angiotensin II receptor A; experiment: Displacement of [125I]Ang II from AT1 receptor in rat liver membranes; type: cell membranes
[4] = Displacement of [125I]Ang II from AT2 receptor in pig uterus membranes; type: cell membranes, Sus scrofa
[5] = biological target: T3, Type-1 angiotensin II receptor (Homo sapiens, UniProt P30556); experiment: Inhibition of human AT1 receptor
T3 sequence (P30556 whole entry): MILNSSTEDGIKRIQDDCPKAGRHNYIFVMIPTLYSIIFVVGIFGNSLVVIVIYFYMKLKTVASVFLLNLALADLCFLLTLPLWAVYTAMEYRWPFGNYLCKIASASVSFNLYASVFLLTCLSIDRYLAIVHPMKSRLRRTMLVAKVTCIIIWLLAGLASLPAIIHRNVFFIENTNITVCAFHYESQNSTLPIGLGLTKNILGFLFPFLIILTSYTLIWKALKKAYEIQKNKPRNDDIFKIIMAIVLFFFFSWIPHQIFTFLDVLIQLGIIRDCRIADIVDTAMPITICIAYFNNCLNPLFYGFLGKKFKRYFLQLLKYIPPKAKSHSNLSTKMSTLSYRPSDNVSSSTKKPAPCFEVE

Proto-oncogene Mas [6] = biological target: T4, Proto-oncogene Mas (Homo sapiens, UniProt P04201); experiment: Agonist activity at N-terminal c-Myc tagged human MasR expressed in HEK293T cells assessed as reduction in forskolin-induced cAMP accumulation; type: functional, cell-based
T4 sequence (P04201 whole entry): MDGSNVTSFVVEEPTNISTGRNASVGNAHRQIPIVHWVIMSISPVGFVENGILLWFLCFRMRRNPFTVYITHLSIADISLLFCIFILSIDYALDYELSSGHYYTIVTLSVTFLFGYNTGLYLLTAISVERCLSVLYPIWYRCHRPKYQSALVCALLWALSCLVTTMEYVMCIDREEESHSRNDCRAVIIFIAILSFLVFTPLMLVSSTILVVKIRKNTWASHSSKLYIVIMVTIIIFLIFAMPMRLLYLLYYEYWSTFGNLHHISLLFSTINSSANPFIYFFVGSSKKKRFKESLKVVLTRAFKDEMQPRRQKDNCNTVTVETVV

Proto-oncogene Mas [7] = biological target: T4, Proto-oncogene Mas; experiment: Antagonist activity at N-terminal c-Myc tagged human MasR expressed in HEK293T cells by cAMP accumulation based assay; type: functional, cell-based
[8] = biological target: T1, Type-1 angiotensin II receptor A; experiment: Displacement of [125I]Ang II from AT1 receptor in rat SMC membranes incubated for 60 mins by gamma counting method; type: cell membranes

- IC50 [1]: 2900 µM
- IC50 [2]: 0.0752 µM
SMILES: COc1ccc2c(c1OCc1ccccc1)CC(C(=O)O)N(C(=O)C(c1ccccc1)c1ccccc1)C2 (stereo not drawn)

- Ki [3]: 0.0039 µM
- Ki [4]: 0.0028 µM
SMILES: CCCCOC(=O)NS(=O)(=O)c1sc(CC(C)C)cc1-c1ccc(Cn2c(CC)nc3c(C)cc(C)nc32)cc1

- IC50 [3]: 0.0014 µM
- IC50 [4]: 0.101 µM
SMILES: CCCCOC(=O)NS(=O)(=O)c1ccc(Cc2cccc(OC)c2)cc1-c1ccc(Cn2c(CC)nc3c(C)cc(C)nc32)cc1

- Ki [5]: 0.012 µM
SMILES: Cc1cc(Cn2cnc3c2C[C@@H](C(=O)O)N(C(=O)C(c2ccccc2)c2ccccc2)C3)ccc1N(C)C

- IC50 (Proto-oncogene Mas [6]): 0.021 µM
SMILES: CCNC(=O)NS(=O)(=O)c1sc(CC(C)C)cc1-c1ccc(Cn2c(-c3ccccc3)nc(OC)c2C=O)cc1

- IC50 [5]: 1.1 µM
SMILES: COc1ccc2c(c1OCc1ccccc1)C[C@H](C(=O)O)N(C(=O)C(c1ccccc1)c1ccccc1)C2

- IC50 (Proto-oncogene Mas [7]): 0.0003 µM
SMILES: CC[C@H](C)[C@H](NC(=O)[C@H](Cc1ccc(O)cc1)NC(=O)[C@@H](NC(=O)[C@H](CCCNC(=N)N)NC(=O)[C@@H](N)CC(=O)O)C(C)C)C(=O)N[C@@H](Cc1cnc[nH]1)C(=O)N[C@H](C)C(=O)O (HELM PEPTIDE1{D.R.V.Y.I.H.[dA]}$$$$V2.0)

- Ki [8]: 1.7 µM
SMILES: CC[C@H](C)[C@H](NC(=O)[C@@H]1CCCN1C(=O)[C@H](Cc1c[nH]cn1)NC(=O)[C@H](CCCCNC(=O)[C@H](CCCN=C(N)N)NC(=O)OCc1ccccc1)NC(=O)[C@H](Cc1ccc(O)cc1)NC(=O)c1cccnc1)C(=O)O (HELM PEPTIDE1{[O=C(c1cccnc1)[*:2]].Y.K.H.P.I}|PEPTIDE2{[O=C(OCc1ccccc1)[*:2]].R}$PEPTIDE1,PEPTIDE2,3:R3-2:R2$$$V2.0)

- Ki [3]: > 10 µM
SMILES: CCCCOC(=O)NS(=O)(=O)c1sc(CC(C)C)cc1-c1ccc(Cn2ccnc2)cc1 [BULOXIBUTID]

- IC50 [5]: 0.039 µM
SMILES: COc1ccc2c(c1OCc1ccccc1)C[C@@H](C(=O)O)N(C(=O)C(c1ccccc1)c1ccccc1)C2 [OLODANRIGAN]

Reference: ChEMBL document CHEMBL4354850, “The Other Angiotensin II Receptor: AT2R as a Therapeutic Target” (J Med Chem, 2020)
